Experimental data taken from patent publication US20260325561A1, “4'-SUBSTITUTED NUCLEOSIDES AND NUCLEOTIDES AS ANTIVIRAL AGENTS” (THE SCRIPPS RESEARCH INSTITUTE, priority 2023, published 2026).

How the values were obtained:
DENV-2 = assay: microbe, parasite or virus in culture; assay type: cell-based, DENV-2 16681; settings: Dengue virus, DENV2, HepG2, 24 h, read-out: DENV-2 / HepG2 EC50
in vitro [1] = settings: human, hela-ace2 cells
in vitro [2] = settings: human, hep2 cells
in vitro [3] = settings: human, hepg2 cells
HRV 14 = assay: microbe, parasite or virus in culture; assay type: cell-based, Human Rhinovirus 14 strain 1059; settings: Rhinovirus B, H1-HeLa, 48 h, read-out: HRV / H1 HeLa B 14 EC50
in vitro [4] = settings: human, h1 hela cells
SARS-CoV-2 = assay: microbe, parasite or virus in culture; assay type: cell-based, SARS-CoV-2 strain USA-WA1/2020; settings: Severe acute respiratory syndrome coronavirus 2, HeLa-ACE2, 24 h, read-out: SARS-CoV-2 / HeLa-ACE2 EC50
RSV A2 = assay: microbe, parasite or virus in culture; assay type: cell-based; settings: human respiratory syncytial virus, HEp-2, 72 h, read-out: RSV A2 / Hep2 EC50

Structure (SMILES)	EC50 (DENV-2) [µM]	CC50 at 24 h (in vitro [1]) [µM]	CC50 (in vitro [2]) [µM]	CC50 at 72 h (in vitro [3]) [µM]	EC50 (HRV 14) [µM]	CC50 (in vitro [4]) [µM]	EC50 (SARS-CoV-2) [µM]	EC50 (RSV A2) [µM]
C[C@]1(O)[C@H](c2ccc3c(N)ncnn23)O[C@@](CO)(N=[N+]=[N-])[C@H]1O [Example 9, (2R,3S,4R,5S)-5-(4-aminopyrrolo[2,1-f][1,2,4]triazin-7-yl)-2-azido-2-(hydroxymethyl)-4-methyltetrahydrofuran-3,4-diol]	> 10	> 99	> 99	> 99	> 10	> 99	> 10	> 10
Nc1ncnc2c1ccn2[C@@H]1O[C@](F)(CO)C[C@H]1O [Example 11, (2R,3R,5R)-2-(4-amino-7H-pyrrolo[2,3-d]pyrimidin-7-yl)-5-fluoro-5-(hydroxymethyl)tetrahydrofuran-3-ol]	> 10	> 99	> 99	10 to 99	> 10	10 to 99	> 10	> 10
Nc1ncnc2c1ccn2[C@@H]1O[C@@](F)(CO)C[C@H]1O [Example 12, (2R,3R,5S)-2-(4-amino-7H-pyrrolo[2,3-d]pyrimidin-7-yl)-5-fluoro-5-(hydroxymethyl)tetrahydrofuran-3-ol]	> 10	> 99	> 99	> 99	> 10	10 to 99	> 10	> 10
CSc1nc(N)nc2c1ncn2[C@@H]1O[C@](F)(CO)[C@@H](O)[C@H]1O [Example 28]	0.1 to 1	1 to 10	1 to 10	1 to 10	> 10	1 to 10	> 10	0.1 to 1
N#Cc1cn([C@@H]2O[C@](F)(CO)[C@@H](O)[C@H]2O)c2nc[nH]c(=O)c12 [Example 37, 7-((2R,3R,4S,5S)-5-fluoro-3,4-dihydroxy-5-(hydroxymethyl)tetrahydrofuran-2-yl)-4-oxo-4,7-dihydro-3H-pyrrolo[2,3-d]pyrimidine-5-carbonitrile]	> 10	> 99	> 99	> 99	> 10	> 99	> 10	> 10
COc1ncnc2c1c(C(N)=O)cn2[C@@H]1O[C@](F)(CO)[C@@H](O)[C@H]1O [Example 38, 7-((2R,3R,4S,5S)-5-fluoro-3,4-dihydroxy-5-(hydroxymethyl)tetrahydrofuran-2-yl)-4-methoxy-7H-pyrrolo[2,3-d]pyrimidine-5-carboxamide]	1 to 10	< 1	10 to 99	1 to 10	> 10	10 to 99	> 10	> 10
COc1ncnc2c1ccn2[C@@H]1O[C@](F)(CO)C[C@H]1O [Example 39, (2R,3R,5R)-5-fluoro-5-(hydroxymethyl)-2-(4-methoxy-7H-pyrrolo[2,3-d]pyrimidin-7-yl)tetrahydrofuran-3-ol]	> 10	> 99	> 99	> 99	> 10	> 99	> 10	> 10
CC(C)C(=O)OC[C@@]1(F)O[C@@H](n2ccc3c(N)ncnc32)[C@H](O)[C@@H]1O [Example 46, ((2S,3S,4R,5R)-5-(4-amino-7H-pyrrolo[2,3-d]pyrimidin-7-yl)-2-fluoro-3,4-dihydroxytetrahydrofuran-2-yl)methyl isobutyrate]	< 0.1	1 to 10	10 to 99	1 to 10	0.1 to 1	10 to 99	0.1 to 1	0.1 to 1
CC(C)C(=O)OC[C@@]1(F)O[C@@H](n2ccc3c(N)ncnc32)[C@H](OC(=O)C(C)C)[C@@H]1OC(=O)C(C)C [Example 47, (2S,3S,4R,5R)-5-(4-amino-7H-pyrrolo[2,3-d]pyrimidin-7-yl)-2-fluoro-2-((isobutyryloxy)methyl)tetrahydrofuran-3,4-diyl bis(2-methylpropanoate)]	< 0.1	10 to 99	1 to 10	1 to 10	1 to 10	10 to 99	1 to 10	< 0.1
N#C[C@@]1(c2cnc3c(N)ncnn23)O[C@](F)(CO)[C@@H](O)[C@H]1O [Example 51, (2R,3R,4S,5S)-2-(4-aminoimidazo[2,1-f][1,2,4]triazin-7-yl)-5-fluoro-3,4-dihydroxy-5-(hydroxymethyl)tetrahydrofuran-2-carbonitrile]	> 10	> 99	> 99	> 99	> 10	> 99	> 10	> 10
Nc1ncnc2c1cnn2[C@@H]1O[C@](F)(CO)[C@@H](O)[C@H]1O [Example 52, (2S,3S,4R,5R)-5-(4-amino-1H-pyrazolo[3,4-d]pyrimidin-1-yl)-2-fluoro-2-(hydroxymethyl)tetrahydrofuran-3,4-diol]	1 to 10	1 to 10	1 to 10	< 1	1 to 10	1 to 10	1 to 10	> 10
C[C@]1(Cl)[C@H](n2cnc3c(=O)[nH]c(N)nc32)O[C@](F)(CO)[C@H]1O [Example 62, 2-amino-9-((2R,3R,4R,5S)-3-chloro-5-fluoro-4-hydroxy-5-(hydroxymethyl)-3-methyltetrahydrofuran-2-yl)-1,9-dihydro-6H-purin-6-one]	0.1 to 1	> 99	10 to 99	10 to 99	> 10	10 to 99	> 10	> 10
CCOc1nc(N)nc2c1ncn2[C@@H]1O[C@](F)(COP(=O)(N[C@@H](C)C(=O)OC(C)C)Oc2ccccc2)[C@@H](O)[C@@]1(C)Cl (stereo partly drawn) [Example 64, isopropyl ((((2S,3R,4R,5R)-5-(2-amino-6-ethoxy-9H-purin-9-yl)-4-chloro-2-fluoro-3-hydroxy-4-methyltetrahydrofuran-2-yl)methoxy)(phenoxy)phosphoryl)-L-alaninate]	1 to 10	10 to 99	10 to 99	10 to 99	> 10	10 to 99	> 10	> 10
C[C@H](NP(=O)(OC[C@@]1(F)O[C@@](C#N)(c2cnc3c(N)ncnn23)[C@H](O)[C@@H]1O)Oc1cccc2ccccc12)C(=O)OCC(C)(C)C (stereo partly drawn) [Example 65, neopentyl ((((2S,3S,4R,5R)-5-(4-aminoimidazo[2,1-f][1,2,4]triazin-7-yl)-5-cyano-2-fluoro-3,4-dihydroxytetrahydrofuran-2-yl)methoxy)(naphthalen-1-yloxy)phosphoryl)-L-alaninate]	1 to 10	10 to 99	10 to 99	1 to 10	> 10	10 to 99	1 to 10	> 10
CCOc1nc(N)nc2c1ncn2[C@@H]1O[C@](F)(CO[P@@](=O)(N[C@@H](C)C(=O)OC(C)C)Oc2ccccc2)[C@@H](O)[C@]1(F)Cl [Example 67, isopropyl ((((2S,3R,4S,5R)-5-(2-amino-6-ethoxy-9H-purin-9-yl)-4-chloro-2,4-difluoro-3-hydroxytetrahydrofuran-2-yl)methoxy)(phenoxy)phosphoryl)-L-alaninate]	1 to 10	10 to 99	10 to 99	10 to 99	1 to 10	10 to 99	> 10	> 10
CCOc1nc(N)nc2c1ncn2[C@@H]1O[C@](F)(CO)[C@@H](O)[C@]1(F)Br [Example 68, (2S,3R,4S,5R)-5-(2-amino-6-ethoxy-9H-purin-9-yl)-4-bromo-2,4-difluoro-2-(hydroxymethyl)tetrahydrofuran-3-ol]	> 10	> 99	10 to 99	10 to 99	> 10	10 to 99	> 10	> 10
C#C[C@]1(O)[C@H](n2ccc3c(NCCC)ncnc32)O[C@](F)(CO)[C@H]1O [Example 70, (2S,3S,4R,5R)-4-ethynyl-2-fluoro-2-(hydroxymethyl)-5-(4-(propylamino)-7H-pyrrolo[2,3-d]pyrimidin-7-yl)tetrahydrofuran-3,4-diol]	> 10	> 99	10 to 99	10 to 99	> 10	10 to 99	> 10	> 10
CSc1ncnc2c1ccn2[C@@H]1O[C@](F)(CO)[C@@H](O)[C@H]1O [Example 72, (2S,3S,4R,5R)-2-fluoro-2-(hydroxymethyl)-5-(4-(methylthio)-7H-pyrrolo[2,3-d]pyrimidin-7-yl)tetrahydrofuran-3,4-diol]	1 to 10	10 to 99	10 to 99	10 to 99	> 10	> 99	1 to 10	> 10
